Results: the NIST ThermoML archive (doi:10.1016/j.tca.2018.08.017)
Values joined by “and” are separate entries in the source; they are usually repeats but may differ in a detail not shown here. Identical values can stand only once. ± gives the expanded uncertainty stated by the source.

Details: 101.33 kPa, Liquid

CCCCCCCCCCCCCCCCCC [octadecane]
viscosity
Details | Concentric cylinders viscometry | Cone and plate viscometry
299.75 K | – | 3.95 ± 0.19 mPa·s
299.95 K | – | 3.92 ± 0.19 mPa·s
300.05 K | – | 4.21 ± 0.85 mPa·s
300.15 K | – | 3.91 ± 0.19 mPa·s and 4.12 ± 0.52 mPa·s
300.35 K | – | 3.89 ± 0.19 mPa·s and 4.09 ± 0.52 mPa·s
300.55 K | – | 3.86 ± 0.19 mPa·s
300.65 K | – | 4.06 ± 0.51 mPa·s and 4.17 ± 0.84 mPa·s
300.75 K | – | 3.84 ± 0.19 mPa·s
300.85 K | – | 3.84 ± 0.18 mPa·s and 4.04 ± 0.51 mPa·s
300.95 K | – | 3.82 ± 0.18 mPa·s
300.96 K | 4.095 ± 0.22 mPa·s | –
301.15 K | – | 3.81 ± 0.18 mPa·s and 4.02 ± 0.51 mPa·s and 4.13 ± 0.83 mPa·s
301.29 K | 4.068 ± 0.22 mPa·s [middle of 4 runs] | –
301.35 K | – | 3.8 ± 0.18 mPa·s and 4 ± 0.5 mPa·s
301.36 K | 4.052 ± 0.22 mPa·s | –
301.55 K | – | 3.8 ± 0.18 mPa·s
301.65 K | – | 3.98 ± 0.5 mPa·s and 4.09 ± 0.82 mPa·s
301.75 K | – | 3.76 ± 0.18 mPa·s and 3.74 ± 0.36 mPa·s
301.76 K | 4.011 ± 0.22 mPa·s | –
301.84 K | 4.009 ± 0.22 mPa·s | –
301.85 K | – | 3.96 ± 0.5 mPa·s
301.95 K | – | 3.77 ± 0.18 mPa·s
302.05 K | – | 3.71 ± 0.35 mPa·s
302.15 K | – | 3.76 ± 0.18 mPa·s and 3.93 ± 0.49 mPa·s and 4.04 ± 0.81 mPa·s
302.18 K | 3.967 ± 0.21 mPa·s | –
302.35 K | – | 3.72 ± 0.18 mPa·s and 3.91 ± 0.49 mPa·s
302.45 K | – | 3.69 ± 0.35 mPa·s
302.55 K | – | 3.73 ± 0.18 mPa·s
302.58 K | 3.927 ± 0.21 mPa·s | –
302.64 K | 3.926 ± 0.21 mPa·s | –
302.65 K | – | 3.88 ± 0.49 mPa·s and 4.01 ± 0.81 mPa·s
302.75 K | – | 3.71 ± 0.18 mPa·s
302.85 K | – | 3.85 ± 0.49 mPa·s and 3.66 ± 0.35 mPa·s
302.95 K | – | 3.69 ± 0.18 mPa·s
302.96 K | 3.884 ± 0.21 mPa·s | –
303.15 K | – | 3.72 ± 0.18 mPa·s [middle of 6 runs]
303.35 K | – | 3.67 ± 0.18 mPa·s and 3.81 ± 0.48 mPa·s
303.38 K | 3.837 ± 0.21 mPa·s [middle of 5 runs] | –
303.4 K | 3.838 ± 0.21 mPa·s | –
303.42 K | 3.846 ± 0.21 mPa·s | –
303.55 K | – | 3.63 ± 0.17 mPa·s and 3.61 ± 0.34 mPa·s
303.65 K | – | 3.78 ± 0.48 mPa·s and 3.93 ± 0.79 mPa·s
303.75 K | – | 3.64 ± 0.18 mPa·s
303.81 K | 3.799 ± 0.21 mPa·s | –
303.85 K | – | 3.77 ± 0.47 mPa·s and 3.59 ± 0.34 mPa·s
303.95 K | – | 3.65 ± 0.18 mPa·s
304.15 K | – | 3.6 ± 0.17 mPa·s and 3.75 ± 0.47 mPa·s and 3.89 ± 0.78 mPa·s
304.19 K | 3.769 ± 0.2 mPa·s | –
304.21 K | 3.762 ± 0.2 mPa·s | –
304.25 K | – | 3.56 ± 0.34 mPa·s
304.35 K | – | 3.58 ± 0.17 mPa·s and 3.73 ± 0.47 mPa·s
304.55 K | – | 3.57 ± 0.17 mPa·s and 3.53 ± 0.34 mPa·s
304.58 K | 3.727 ± 0.2 mPa·s | –
304.65 K | – | 3.7 ± 0.47 mPa·s and 3.85 ± 0.77 mPa·s
304.75 K | – | 3.56 ± 0.17 mPa·s
304.85 K | – | 3.69 ± 0.47 mPa·s
304.92 K | 3.694 ± 0.2 mPa·s | –
304.95 K | – | 3.53 ± 0.17 mPa·s and 3.51 ± 0.33 mPa·s
305.08 K | 3.678 ± 0.2 mPa·s | –
305.15 K | – | 3.55 ± 0.17 mPa·s and 3.67 ± 0.46 mPa·s and 3.81 ± 0.76 mPa·s
305.25 K | – | 3.48 ± 0.33 mPa·s
305.35 K | – | 3.5 ± 0.17 mPa·s and 3.64 ± 0.46 mPa·s
305.46 K | 3.642 ± 0.2 mPa·s | –
305.55 K | – | 3.5 ± 0.17 mPa·s
305.65 K | – | 3.62 ± 0.46 mPa·s and 3.47 ± 0.33 mPa·s and 3.77 ± 0.76 mPa·s
305.7 K | 3.624 ± 0.2 mPa·s | –
305.75 K | – | 3.48 ± 0.17 mPa·s
305.84 K | 3.606 ± 0.2 mPa·s | –
305.85 K | – | 3.6 ± 0.45 mPa·s
305.95 K | – | 3.46 ± 0.17 mPa·s
306.05 K | – | 3.43 ± 0.33 mPa·s
306.15 K | – | 3.47 ± 0.17 mPa·s and 3.58 ± 0.45 mPa·s and 3.72 ± 0.75 mPa·s
306.23 K | 3.571 ± 0.19 mPa·s | –
306.35 K | – | 3.47 ± 0.17 mPa·s and 3.56 ± 0.45 mPa·s and 3.42 ± 0.33 mPa·s
306.42 K | 3.556 ± 0.19 mPa·s | –
306.55 K | – | 3.44 ± 0.17 mPa·s
306.61 K | 3.538 ± 0.19 mPa·s | –
306.65 K | – | 3.54 ± 0.45 mPa·s and 3.69 ± 0.74 mPa·s
306.75 K | – | 3.42 ± 0.17 mPa·s and 3.39 ± 0.32 mPa·s
306.85 K | – | 3.52 ± 0.44 mPa·s
306.95 K | – | 3.43 ± 0.17 mPa·s
306.98 K | 3.502 ± 0.19 mPa·s | –
307.05 K | – | 3.36 ± 0.32 mPa·s
307.15 K | – | 3.42 ± 0.17 mPa·s and 3.5 ± 0.44 mPa·s and 3.66 ± 0.73 mPa·s
307.3 K | 3.478 ± 0.19 mPa·s | –
307.35 K | – | 3.4 ± 0.16 mPa·s and 3.49 ± 0.44 mPa·s
307.37 K | 3.469 ± 0.19 mPa·s | –
307.45 K | – | 3.35 ± 0.32 mPa·s
307.55 K | – | 3.39 ± 0.16 mPa·s
307.65 K | – | 3.47 ± 0.44 mPa·s and 3.62 ± 0.73 mPa·s
307.72 K | 3.438 ± 0.19 mPa·s | –
307.75 K | – | 3.38 ± 0.16 mPa·s and 3.32 ± 0.32 mPa·s
307.84 K | 3.426 ± 0.19 mPa·s and 3.427 ± 0.19 mPa·s | –
307.85 K | 3.426 ± 0.19 mPa·s | 3.45 ± 0.43 mPa·s
307.87 K | 3.426 ± 0.19 mPa·s | –
307.93 K | 3.424 ± 0.19 mPa·s | –
307.95 K | – | 3.35 ± 0.16 mPa·s
308.07 K | 3.413 ± 0.18 mPa·s | –
308.11 K | 3.404 ± 0.18 mPa·s | –
308.15 K | – | 3.35 ± 0.16 mPa·s [middle of 6 runs]
308.35 K | – | 3.31 ± 0.16 mPa·s and 3.42 ± 0.43 mPa·s
308.55 K | – | 3.29 ± 0.16 mPa·s and 3.28 ± 0.31 mPa·s
308.59 K | 3.363 ± 0.18 mPa·s | –
308.65 K | – | 3.39 ± 0.43 mPa·s and 3.53 ± 0.71 mPa·s
308.75 K | – | 3.29 ± 0.16 mPa·s
308.83 K | 3.349 ± 0.18 mPa·s | –
308.85 K | – | 3.37 ± 0.42 mPa·s and 3.26 ± 0.31 mPa·s
308.95 K | – | 3.29 ± 0.16 mPa·s
308.96 K | 3.333 ± 0.18 mPa·s | –
309.15 K | – | 3.27 ± 0.16 mPa·s and 3.36 ± 0.42 mPa·s and 3.49 ± 0.7 mPa·s
309.25 K | – | 3.25 ± 0.31 mPa·s
309.3 K | 3.306 ± 0.18 mPa·s | –
309.35 K | – | 3.26 ± 0.16 mPa·s and 3.34 ± 0.42 mPa·s
309.55 K | – | 3.28 ± 0.16 mPa·s and 3.22 ± 0.31 mPa·s
309.58 K | 3.286 ± 0.18 mPa·s | –
309.65 K | – | 3.32 ± 0.42 mPa·s and 3.45 ± 0.69 mPa·s
